Results on one compound are retold here after patent US20050187188A1, “Methods for the treatment of a traumatic central nervous system injury” (Emory University, priority 2000, published 2005).

The test system of one experiment is TNFα. The experiment in a line: TNFα mRNA expression in brain tissue after contusion, real-time quantitative PCR. To be noted: 3 hours and 6 days post-injury. The format is in vivo, rat. The source says:
(§1) Neurosteroid injections were given at 1 hr and 6 hrs after the contusions, and continued once a day for up to 5 consecutive days post-injury.
(§2) Adult male SD rates received either bilateral prefrontal cortical contusions or sham surgeries. The neurosteroid injections were given at 1 hr and 6 hr after the contusions and continued once a day for up to 5 consecutive days post-injury. At 3 hr, 8 hr, 12 hr and 6 days post-injury, the rats were killed and their brains were processed for mRNA extraction. Expression of mRNA for IL-1β and TNFα were assessed using real-time quantitative PCR.

Another experiment concerns IL-1β. The experiment in a line: IL-1β mRNA expression in brain tissue after contusion, real-time quantitative PCR. The experiment is classed as in vivo, rat.
Source text: as §1, §2

For experiment [1], the system named is rats with bilateral contusions of the medial prefrontal cortex. The experiment in a line: Lesion size, ventricle and striatal area measurements after medial prefrontal cortex contusion, Example 6. To be noted: 4 mg/kg in peanut oil. The format is in vivo, rat. Here is the method:
(§3) Male Sprague-Dawley rats (300 g) were housed individually in wire cages and kept on a reverse light-dark cycle (0800-2000 h). Animals were assigned to one of four groups: (1) lesion (n=7); (2) lesion +3 days progesterone (LP3; n=7); (3) lesion +5 days progesterone (LP5; n=7); and (4) Sham (n=8). All procedures involving animals conformed to guidelines set forth in the Guide for the Care and Use of Laboratory Animals (U.S. Department of Health and Human Services, Pub no. 85-23, 1985) and were approved by the Emory University Institutional Animal Care and Use Committee.
(§4) Bilateral contusions of the medial prefrontal cortex were created by a pneumatic impactor device as previously described. Briefly, rats were given anesthetized with ketamine/xylazine (90 mg/kg; 10 mg/kg) and placed in a stereotaxic apparatus. A craniectomy (diameter 6 mm) was made over the midline of the prefrontal cortex with its center 1.5 mm AP to bregma. After removal of the bone, the tip of the impactor (diameter 5 mm) was moved to +3.0 mm AP; 1.0 mm ML (from bregma), and checked for adequate clearance. Trauma was produced by pneumatically activating the piston to impact −2.0 mm DV (from dura) at a velocity of 3 m/s with a brain contact time of 0.5 seconds.
Progesterone was dissolved in peanut oil (Sigma; 4 mg/kg) and injections were given at 1 and 6 hours post-injury and then once per day for either 3 or 5 consecutive days. Control animals received injections of vehicle at similar time-points. Animals were coded with regard to surgery and treatment to prevent experimenter bias during behavioral testing and histological examination. […]
Mean area measurements of lesion size were quantified from sections at 15 rostral-caudal levels spaced 300 μm apart. […] Perimeters of the striatum and the lateral ventricles were also traced and mean areas were quantified from 7 rostral-caudal levels (300 μm apart).
(§5) Experienced individuals who were blind to treatment conditions of the study conducted all histological and behavioral analyses. All data were tested for normality and homoschedasticity before being analyzed by parametric analysis of variance (ANOVA). MWM results were analyzed using separate mixed-factorial (4 groups×5 days) analysis of variance (ANOVA) on each of the two 5-day testing periods (acquisition and retention respectively). Results of the BSN task were analyzed using the mixed-factorial ANOVA (4 groups×2 post-injury trials). […] Pearson r coefficients were calculated to determine whether significant correlations could be detected between histological (e.g., lesion size and cellular density) and behavioral parameters (e.g., acquisition and retention of the MWM task and measures of sensory neglect).

Experiment [2] shares this test system. The experiment in a line: Morris water maze task, Example 6. The experiment is classed as in vivo, rat. Here is the method:
as §3, §4
Progesterone was dissolved in peanut oil (Sigma; 4 mg/kg) and injections were given at 1 and 6 hours post-injury and then once per day for either 3 or 5 consecutive days. Control animals received injections of vehicle at similar time-points. Animals were coded with regard to surgery and treatment to prevent experimenter bias during behavioral testing and histological examination.
as §5
Beginning one week after surgery, spatial learning ability was assessed in the Morris water maze (MWM) task described previously. […] Animals were placed in the pool (nose facing the pool-wall) at one of four randomly determined starting positions (e.g.: N, S, E, W). […] Swim speed measures were recorded daily in order to delineate motor dysfunction from learning impairment.

A further experiment deals with contusion injury. To be noted: cited from earlier work.
In a further experiment the test system is ischemic injury. Particulars: following ischemic injury in rats; cited from earlier work.
For experiment [3], the system named is blood-brain barrier (BBB). To be noted: in vitro; macromolecules vs ions such as sodium; cited from earlier work.
The next experiment has as its system cell death. To be noted: by attenuating release of inflammatory cytokines; cited from earlier work.

Molecules are shown by their SMILES.

In the case of `CC(=O)[C@H]1CC[C@H]2[C@@H]3CCC4=CC(=O)CC[C@]4(C)[C@H]3CC[C@]12C` [progesterone], the “TNFα mRNA expression” value in the experiment on TNFα was “reduced the expression of both IL-1β and TNFα”. For the same compound, the “IL-1β mRNA expression” value is “reduced the expression of both IL-1β and TNFα” in the experiment on IL-1β (3 hours and 6 days post-injury); “but not progesterone, enhanced” with IL-1β (8 hrs post-injury). Also, the “enlargement of the lateral ventricles” value in experiment [1] (3 or 5 days) was “did not have any effect on this measure”. In experiment [1] (3 or 5 days), the mean striatal area entry was “No between-group differences”. The necrotic cavity formation entry in experiment [1] (3 days (LP3)) is recorded as “tended to be smaller than in the brains of injured animals”; in experiment [1] (5 days (LP5), P<0.05), “significant reductions in overall necrotic cavity formation”. Besides, in experiment [2] (4 mg/kg in peanut oil, 3 or 5 days, all injured groups), the “spatial learning performance, initial 5-day acquisition phase” value is “displayed deficits in spatial learning performance as compared to control animals”. Besides, the “spatial learning performance, second 5-day trial block” value in experiment [2] (4 mg/kg in peanut oil, 5 days (LP5)) is given as “improved spatial learning performance”. Further, the swim speed result in experiment [2] (3 or 5 days, any day of testing) is given as “no between-group differences”. The “thigmotaxic (wall-hugging) swim patterns” value in experiment [2] (5 days (LP5), last 2 days of the second phase of MWM testing) is listed as “reduction of thigmotaxic behavior”. The “post injury cerebral edema” value with contusion injury (following a contusion injury) is “reduces the severity of post injury cerebral edema”. In addition, the “neuronal loss in the LMDN” value in the experiment with contusion injury (previous studies with this injury model) is recorded as “can significantly reduce this neuronal loss”. Also, the “cell damage and neurological deficit” value in the experiment with ischemic injury was “reduce cell damage and neurological deficit”. The “permeability of the BBB” value in experiment [3] is on record as “reduce the permeability of the BBB to macromolecules, but not ions”. The “cell death in vitro” value in the experiment with cell death is given as “prevent cell death in vitro”.
